In US20130053430A1, “MODULATION OF CETP EXPRESSION” (Isis Pharmaceuticals, Inc., priority 2010, published 2013):
e = 2'-O-(2-methoxyethyl) (MOE); d = 2'-deoxy (DNA)

What was measured:
[1] = Plasma glucose (Example 6); type: in vivo, mice; conditions: 50 mg/kg s.c. twice per week
Procedure: (§1) The normal chow-fed mice were divided into three treatment groups. The cholesterol-enriched chow-fed mice were divided into three treatment groups. […] One chow-fed group and one cholesterol-enriched chow-fed group received subcutaneous injections of saline twice weekly for 6 weeks. The saline-injected groups served as the control groups to which the corresponding oligonucleotide-treated groups were compared.
Plasma glucose values were determined using a Beckman Glucose Analyzer II (Beckman Coulter) by a glucose oxidase method (Lott, J. A. et al., Clin. Chem. 21: 1754-1760, 1975).

human CETP mRNA [2] = assay: Liver CETP mRNA in huCETP transgenic mice, normal or cholesterol-enriched chow (Example 6); type: in vivo; conditions: 50 mg/kg s.c. twice per week for 6 weeks, relative to PBS control
Procedure: Male huCETP transgenic mice were maintained on a 12-hour light/dark cycle. One group of mice was fed ad libitum normal Purina mouse chow and a second group was fed 0.5% cholesterol-enriched chow (Harlan Teklad TD.97234, Harlan Laboratories, Indianapolis, Ind.). Animals were acclimated for at least 7 days in the research facility before initiation of the experiment. Antisense oligonucleotides (ASOs) were prepared in buffered saline (PBS) and sterilized by filtering through a 0.2 micron filter. Oligonucleotides were dissolved in 0.9% PBS for injection.
as §1
Twenty four hours after the final dose, the animals were sacrificed and liver tissue was isolated. Liver RNA was isolated for real-time PCR analysis of CETP. The primer probe set hCETP was used to measure CETP levels. As presented in Table 16, treatment with antisense oligonucleotides reduced CETP mRNA expression. The RNA expression levels were normalized to murine Cyclophilin. The results are expressed as percent inhibition of CETP mRNA, relative to the PBS control. There was no difference in inhibition of CETP mRNA levels in normal chow-fed and cholesterol-enriched chow fed mice.

CETP protein [3] = assay: Plasma CETP protein by ELISA, dose response (Example 9); type: in vivo, human; conditions: huCETP transgenic mice, Western diet, s.c. 6 weeks
Procedure: Another group received subcutaneous injections of control oligonucleotide ISIS 141923 at a dose of 50 mg/kg/week for 6 weeks. One group of mice received subcutaneous injections of PBS for 6 weeks. The PBS-injected group served as the control group to which treatment groups were compared.
Plasma CETP protein levels were measured by ELISA (Alpco). The results are expressed as percent inhibition of CETP protein, relative to the PBS control.

CETP activity = CETP activity assay kit (Example 8); type: in vivo, human; conditions: huCETP transgenic mice, Western diet; 25 mg/kg s.c. twice per week for 2 weeks; relative to PBS control
Procedure: (§2) The mice were divided into two groups of 4-6 mice each.
CETP activity levels were measured using a CETP activity assay kit (Roar Biomedical Inc., New York, N.Y.). […] The results are expressed as percent inhibition of CETP activity, relative to the PBS control.

CETP mRNA = assay: Liver CETP mRNA in huCETP transgenic mice on Western diet (Example 8); type: in vivo, human; conditions: 25 mg/kg s.c. twice per week for 2 weeks, relative to PBS control
Procedure: Male transgenic mice were maintained on a 12-hour light/dark cycle and were fed ad libitum the Western diet (TD88137; 42% cal from fat, 0.2% cholesterol; Harlan Laboratories, Indianapolis, Ind.). Animals were acclimated for at least 7 days in the research facility before initiation of the experiment and were maintained on this diet throughout the study period. Antisense oligonucleotides (ASOs) were prepared in phosphate buffered saline (PBS) and sterilized by filtering through a 0.2 micron filter. Oligonucleotides were dissolved in 0.9% PBS for injection.
as §2
Twenty four hours after the final dose, the animals were sacrificed and liver tissue was isolated.
Liver RNA was isolated for real-time PCR analysis of CETP. The primer probe set hCETP was used to measure CETP levels. […] The RNA expression levels were normalized to murine Cyclophilin. The results are expressed as percent inhibition of CETP mRNA, relative to the PBS control.

human CETP mRNA [4] = assay: Dose-dependent antisense inhibition of human CETP in SW872 liposarcoma cells (Example 3); type: cell-based; conditions: Lipofectin, ~16 hours (Example 3)
Procedure: ISIS 17291 ([…], 6-8-6 MOE (SEQ ID NO: 115)), ISIS 17302 ([…], 6-8-6 MOE (SEQ ID NO: 116)), and ISIS 17305 ([…], 6-8-6 MOE (SEQ ID NO: 117), first disclosed in U.S. Ser. No. 11/031,827 (incorporated by reference herein), were also tested under the same conditions. Cells were plated at a density of 50,000 cells per well in a 24-well plate and transfected using Lipofectin reagent with 50 nM, 150 nM, and 300 nM concentrations of each antisense oligonucleotide. After approximately 16 hours, RNA was isolated from the cells and CETP mRNA levels were measured by quantitative real-time PCR. CETP mRNA levels were normalized to total RNA content, as measured by the house-keeping gene, GAPDH mRNA levels. Results are presented in Table 5 as percent inhibition of CETP, relative to untreated control cells.

[5] = mouse, in vivo, sc, 25 mg/kg
Excerpt: The saline-injected group served as the control group to which oligonucleotide-treated groups were compared. […] This group served a negative control for the effects of the antisense oligonucleotides against CETP. The groups are further described in Table 27, and are designated letters A-F, by which they will be referred from henceforth.

[6] = Liver function, plasma ALT and AST (Example 8); type: in vivo; conditions: huCETP transgenic mice, Western diet; 25 mg/kg s.c. twice per week for 2 weeks
Excerpt: as §2

CETP protein [7] = assay: Plasma CETP protein by ELISA (Example 8); type: in vivo, human; conditions: huCETP transgenic mice, Western diet; 25 mg/kg s.c. twice per week for 2 weeks; relative to PBS control
Procedure: as §2
Plasma CETP protein levels were measured by ELISA (Alpco). […] The results are expressed as percent inhibition of CETP protein, relative to the PBS control.

Substance	Glucose levels ([1]; Cholesterol chow, Week 0) [mg/dL]	Glucose levels ([1]; Cholesterol chow, Week 3) [mg/dL]	Glucose levels ([1]; Cholesterol chow, Week 6) [mg/dL]	Glucose levels ([1]; Normal chow, Week 0) [mg/dL]	Glucose levels ([1]; Normal chow, Week 3) [mg/dL]	Glucose levels ([1]; Normal chow, Week 6) [mg/dL]	Percent inhibition of liver CETP mRNA expression (human CETP mRNA [2]; Cholesterol chow) [%]	Percent inhibition of liver CETP mRNA expression (human CETP mRNA [2]; Normal chow) [%]	Percent inhibition of plasma CETP protein levels (CETP protein [3]; Dose 50 mg/kg/wk) [%]	also measured
ISIS 349511: 5-10-5 MOE gapmer CCCGACCTCCTTGGAGACTT (sugars from the 5' end e5 d10 e5, backbone and methylation of C not given here)	238	289	225	239	288	206	88	89	–	–
ISIS 141923: CCTTCCCTGAAGGTTCCTCC, 5-10-5 MOE gapmer, a control oligonucleotide which has no known murine target (sugars from the 5' end e5 d10 e5, backbone and methylation of C not given here) [reference compound]	–	–	–	–	–	–	–	–	7	–
ISIS 349517: 5-10-5 MOE gapmer CAGCACTTTAATGCCAGTGG (sugars from the 5' end e5 d10 e5, backbone and methylation of C not given here)	277	245	240	263	257	211	98	95	80	Percent inhibition of CETP activity (CETP activity): 73%; Percent inhibition of liver CETP mRNA expression (CETP mRNA): 84%; percent inhibition of CETP (human CETP mRNA [4]; 50 nM): 76%; percent inhibition of CETP (human CETP mRNA [4]; 150 nM): 91%; percent inhibition of CETP (human CETP mRNA [4]; 300 nM): 93%; Organ weights, Kidney [5]: 0.39; Organ weights, Liver [5]: 1.51; Organ weights, Spleen [5]: 0.09; Transaminase levels, ALT [6]: 26 IU/L; Transaminase levels, AST [6]: 38 IU/L; Percent inhibition of plasma CETP protein levels (CETP protein [7]): 96%; Percent inhibition of plasma CETP protein levels (CETP protein [3]; Dose 1.5 mg/kg/wk): 58%; Percent inhibition of plasma CETP protein levels (CETP protein [3]; Dose 5 mg/kg/wk): 74%; Percent inhibition of plasma CETP protein levels (CETP protein [3]; Dose 15 mg/kg/wk): 81%
